Assay results: PMC5515969, “Effects of 31 FDA approved small-molecule kinase inhibitors on isolated rat liver mitochondria” (Archives of Toxicology, 2016)
Read-outs that look alike come from different tables or passages of the source. Marks after values point to notes of the source that are not given here.

Experiments:
[1] = tested on: isolated rat liver mitochondria; test: Mitochondrial toxicity, any endpoint, intact mitochondria and submitochondrial particles; format: biochemical; settings: for lowest concentration causing significant mitochondrial toxicity: any endpoint
Procedure: Rats were anesthetized by an intraperitoneal injection of Nembutal and the liver perfused with PBS to remove the blood. The liver was then cut into small pieces and homogenized using a Dounce type homogenizer in the ice-cold isolation buffer (IB) containing 200 mM sucrose, 10 mM Tris-MOPS, 1 mM EGTA (pH 7.4). The sample was then centrifuged at 600g for 10 min. The supernatant was further centrifuged at 7500g for 10 min, and the pellets was washed once with the IB and centrifuged again at 7500g for 10 min to collect mitochondria. […] Before drug treatment, the protein concentration was adjusted to 1 mg/ml using appropriate buffer. […] Briefly, mitochondrial and cytosolic fractions from four different preparations using four rats were diluted using the Laemmli protein loading buffer and subject to SDS-PAGE with 4–20% gradient gels. The proteins were blotted to PVDF membranes and detected using antibodies against GAPDH, ATP5A, UQCRC2, SDHB, and NDUFB8.
The aliquoted stock solutions were kept for less than one month and each tube was used only once. The KIs were added to the mitochondria at 1:1000 dilutions. […] The Cmax data were from clinical trials which used FDA recommend dosages, route of administration, and duration. […] The final concentration of DMSO for drug treatment was always 0.1%, and control treatments were 0.1% DMSO.

[2] = cited from earlier work
[3] = cited from earlier work; remark: listed apart in the source
[4] = tested on: isolated rat liver mitochondria; settings: for lowest concentration causing cytochrome c release: rat, 30 min, pH 7.4
[5] = tested on: isolated rat liver mitochondria; test: Mitochondrial ROS production (CM-H2DCFDA)
[6] = tested on: isolated rat liver mitochondria; test: Mitochondrial oxygen consumption (glutamate/malate or succinate driven, state 4 and state 3); format: biochemical; settings: for Glutamate/malate driven respiration State 3 / Glutamate/malate driven respiration State 4 / Succinate-driven respiration State 3 / Succinate-driven respiration State 4: oxygen consumption, DMSO-treated = 1; as to State 3 respiration driven by succinate at 10XCmax: key: 0 indicates that the drug had no effects (negative); as to State 3 respiration driven by succinate at 1XCmax: key: 0 indicates that the drug had no effects (negative)
Outline: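 Oxygen uptake on glutamate/malate or on succinate defined state 4; ADP added 3 min later gave state 3. Mitochondria isolated from rat liver by differential centrifugation, adjusted to 1 mg/ml and pretreated 5 min with inhibitor (0.1% DMSO final). Values relative to DMSO control, set to 1.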

[7] = ref product labeling; cited from earlier work
[8] = tested on: isolated rat liver mitochondria; test: Mitochondrial inner membrane potential (MMP), Rhodamine 123; format: biochemical; settings: difference in signal between KI and DMSO treated samples at the end of experiments
Excerpt: Fig. 3 KI effects on mitochondrial inner membrane potential (MMP). […] In a, c, data are means and standard derivations from three separate experiments. *p < 0.05 as compared to DMSO-treated samples at the end of experiments. In b, data are means of two independent experiments

RCC I = RCC I activity in submitochondrial particles; format: biochemical, rat; set-up: key to RCC I at 10XCmax / RCC I at 100XCmax / RCC I at 50XCmax / RCC I at 30XCmax / RCC I at 20XCmax: activity relative to DMSO-treated controls (control set as 1 = 100%)
Outline: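 First, submitochondrial particles (1 mg/ml) are incubated with inhibitor for 15 min. Next, complex activities are followed spectrophotometrically, with RCC I taken as the difference between buffers lacking and containing rotenone. Finally, activities are expressed relative to DMSO controls set at 1.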

RCC II = biological target: T1, RCC II (Rattus norvegicus, UniProt P21913+Q641Z9+Q6PCT8+Q920L2); test: RCC II activity in submitochondrial particles; format: biochemical; set-up: key: activity relative to DMSO-treated controls (control set as 1 = 100%); settings: DMSO treated samples set as 1
T1 construct: Submitochondrial particles were prepared by subjecting the intact mitochondria to three successive freeze–thaw cycles; from tissue; host or cells: rat liver mitochondria, used as submitochondrial particles
T1 sequence (Q920L2 35-656): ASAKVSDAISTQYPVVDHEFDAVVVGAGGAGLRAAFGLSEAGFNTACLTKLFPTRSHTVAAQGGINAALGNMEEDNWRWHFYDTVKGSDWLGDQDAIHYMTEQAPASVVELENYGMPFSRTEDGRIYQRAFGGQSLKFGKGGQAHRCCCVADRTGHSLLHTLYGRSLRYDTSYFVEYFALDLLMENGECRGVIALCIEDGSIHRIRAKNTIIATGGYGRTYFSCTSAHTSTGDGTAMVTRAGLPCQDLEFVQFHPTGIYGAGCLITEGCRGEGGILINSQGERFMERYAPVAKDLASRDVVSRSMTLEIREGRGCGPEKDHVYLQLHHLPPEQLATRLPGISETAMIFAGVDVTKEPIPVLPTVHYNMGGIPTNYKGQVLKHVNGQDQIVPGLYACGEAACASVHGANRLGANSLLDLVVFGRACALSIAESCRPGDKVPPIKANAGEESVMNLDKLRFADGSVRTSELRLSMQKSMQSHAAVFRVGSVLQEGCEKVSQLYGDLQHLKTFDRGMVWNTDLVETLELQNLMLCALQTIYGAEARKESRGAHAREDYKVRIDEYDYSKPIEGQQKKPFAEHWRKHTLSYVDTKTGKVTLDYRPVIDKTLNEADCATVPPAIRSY
T1 sequence (P21913 31-282): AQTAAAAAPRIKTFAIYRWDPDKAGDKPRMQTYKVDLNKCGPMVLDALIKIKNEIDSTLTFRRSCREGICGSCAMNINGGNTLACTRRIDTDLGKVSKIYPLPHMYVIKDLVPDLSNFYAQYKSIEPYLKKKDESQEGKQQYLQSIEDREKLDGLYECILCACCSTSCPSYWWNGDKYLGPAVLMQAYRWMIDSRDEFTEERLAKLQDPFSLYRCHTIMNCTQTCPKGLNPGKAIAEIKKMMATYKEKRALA
T1 sequence (Q641Z9 1-169): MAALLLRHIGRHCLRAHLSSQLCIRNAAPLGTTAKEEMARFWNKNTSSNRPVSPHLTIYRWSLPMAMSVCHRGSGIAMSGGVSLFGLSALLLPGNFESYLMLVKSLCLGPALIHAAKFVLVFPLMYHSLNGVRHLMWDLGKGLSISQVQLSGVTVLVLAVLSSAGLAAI
T1 sequence (Q6PCT8 57-159): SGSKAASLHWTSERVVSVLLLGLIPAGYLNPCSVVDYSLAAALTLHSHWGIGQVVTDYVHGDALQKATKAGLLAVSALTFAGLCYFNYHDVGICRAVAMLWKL
Outline: (§1)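 Abs 340 nm (I/V) or 600 nm (II), 1-min reads × 6 min; 550 nm (III, IV), 10-s reads × 2 min. RCC I = rotenone-free minus rotenone rate. DMSO control = 1.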

RCC V = RCC V activity in submitochondrial particles; format: biochemical, rat; settings: 5XCmax; DMSO treated samples set as 1; also: key: 0 indicates that the drug had no effects (negative)
Outline: as §1

[9] = tested on: isolated rat liver mitochondria; test: Mitochondrial swelling (absorbance at 535 nm); format: biochemical; settings: difference in signal between KI and DMSO treated samples at the end of experiments; as to Swelling 5XCmax: key: 0 indicates that the drug had no effects (negative)
[10] = human therapeutic Cmax at FDA recommended dosages, ref product labeling and drug approval packages at the official FDA website
[11] = 10XCmax, DMSO treated samples set as 1
[12] = 1XCmax, DMSO treated samples set as 1
[13] = 2.5XCmax, DMSO treated samples set as 1
[14] = 5XCmax, DMSO treated samples set as 1
[15] = 20XCmax, DMSO treated samples set as 1
[16] = 30XCmax, DMSO treated samples set as 1

## CCN(CC)CCNC(=O)c1c(C)[nH]c(/C=C2\C(=O)Nc3ccc(F)cc32)c1C [Sunitinib]
[1]; highest concentrations tested
  effects on intact mitochondria or submitochondrial particles: no effects
[2]; [10]
  Cmax: 0.12 µM
[2]; ref Porceddu et al. [2012]
  Cmax: 70.8 µM
[3]; W&P warnings and precautions, BBW black box warnings, ref FDA product labeling
  labeling for DILI: BBW: fatal DILI
[3]; ref FDA product labeling
  DILI potential (based on labeling): 1

## CS(=O)(=O)CCNCc1ccc(-c2ccc3ncnc(Nc4ccc(OCc5cccc(F)c5)c(Cl)c4)c3c2)o1 [Lapatinib]
[1]; concentrations equal to 100-fold Cmax
  mitochondrial injury: mitochondrial injury was induced
[3]; in vivo
  labeling for DILI: BBW: fatal DILI
[3]; ref FDA product labeling
  DILI potential (based on labeling): 1

## C=CC(=O)Nc1cc(Nc2nccc(-c3cn(C)c4ccccc34)n2)c(OC)cc1N(C)CCN(C)C [Osimertinib]
[4]
  lowest concentration causing cytochrome c release: 100 fold Cmax
[1]
  lowest concentration causing significant mitochondrial toxicity: 30 fold Cmax
[2]; [10]
  Cmax: 0.5 µM
[5]
  lowest concentration triggering ROS overproduction: 30 fold Cmax

## N#CC[C@H](C1CCCC1)n1cc(-c2ncnc3[nH]ccc23)cn1 [Ruxolitinib]
[4]
  lowest concentration causing cytochrome c release: 50 fold Cmax
[1]
  lowest concentration causing significant mitochondrial toxicity: 20 fold Cmax
[2]; [10]
  Cmax: 1.2 µM
[6]; 20-fold Cmax
  Glutamate/malate driven respiration State 3: 0.62 ± 0.05
  Glutamate/malate driven respiration State 4: 0.81 ± 0.05
  Succinate-driven respiration State 3: 0.90 ± 0.13
  Succinate-driven respiration State 4: 1.00 ± 0.14
[6]; 30-fold Cmax
  Glutamate/malate driven respiration State 3: 0.54 ± 0.02
  Glutamate/malate driven respiration State 4: 1.00 ± 0.09
  Succinate-driven respiration State 3: 1.05 ± 0.11
  Succinate-driven respiration State 4: 1.08 ± 0.09
[6]; 50-fold Cmax
  Glutamate/malate driven respiration State 3: 0.49 ± 0.06
  Glutamate/malate driven respiration State 4: 0.97 ± 0.20
  Succinate-driven respiration State 3: 0.87 ± 0.08
  Succinate-driven respiration State 4: 1.07 ± 0.07
[6]; 100-fold Cmax
  Glutamate/malate driven respiration State 3: 0.28 ± 0.06
  Glutamate/malate driven respiration State 4: 0.71 ± 0.08
  Succinate-driven respiration State 3: 0.99 ± 0.03
  Succinate-driven respiration State 4: 1.17 ± 0.12
[6]; tested at 1 to 100-fold Cmax
  lowest concentration significantly affecting mitochondrial oxygen consumption: 20 fold Cmax
[3]; ref FDA product labeling
  DILI potential (based on labeling): 0

## COc1cc2nccc(Oc3ccc(NC(=O)C4(C(=O)Nc5ccc(F)cc5)CC4)cc3)c2cc1OC [cabozantinib malate]
[4]; 1XCmax, positive control alamethicin treated samples
  Cytochrome c release 1XCmax: 0
[4]; 2.5XCmax, positive control alamethicin treated samples
  Cytochrome c release 2.5XCmax: 0
[4]; 5XCmax, positive control alamethicin treated samples
  Cytochrome c release 5XCmax: 0
[4]; 10XCmax, positive control alamethicin treated samples
  Cytochrome c release 10XCmax: 0
[4]; 20XCmax, positive control alamethicin treated samples
  Cytochrome c release 20XCmax: 0
[4]; 30XCmax, positive control alamethicin treated samples
  Cytochrome c release 30XCmax: 0
[7]
  Potential for cardiotoxicity (based on labeling): 0
[8]; 1XCmax
  MMP measured by Rhodamine 123 at 1XCmax: 0
[8]; 2.5XCmax
  MMP measured by Rhodamine 123 at 2.5XCmax: 0
[8]; 5XCmax
  MMP measured by Rhodamine 123 at 5XCmax: 0
[8]; 10XCmax
  MMP measured by Rhodamine 123 at 10XCmax: 945±179*
[8]; 20XCmax
  MMP measured by Rhodamine 123 at 20XCmax: 1828±818*
[8]; 30XCmax
  MMP measured by Rhodamine 123 at 30XCmax: 2071±803*
RCC I; [11]
  RCC I at 10XCmax: 0
RCC I; 30XCmax, DMSO-treated = 100
  RCC I at 30XCmax: 80.97±2.99
[2]; human therapeutic maximal blood concentration, ref product labeling
  Cmax (ng or µg/ml): 1.64 µg/mL
[2]; read-out: Cmax at µM, human therapeutic maximal blood concentration, ref product labeling
  Cmax: 2.58 µM
RCC II; 1.0XCmax
  RCC II at 1.0XCmax: 0
RCC II; 2.5XCmax
  RCC II at 2.5XCmax: 0
RCC II; 5XCmax
  RCC II at 5XCmax: 0
RCC II; 10XCmax
  RCC II at 10XCmax: 0
RCC II; 20XCmax
  RCC II at 20XCmax: 0
RCC II; 30XCmax
  RCC II at 30XCmax: 79.26±6.01
RCC V
  RCC V at 5XCmax: 0
[6]; [12]
  State 3 respiration driven by succinate at 1XCmax: 0
  State 4 respiration driven by succinate at 1XCmax: 0
[6]; [13]
  State 3 respiration driven by succinate at 2.5XCmax: 0
  State 4 respiration driven by succinate at 2.5XCmax: 0
[6]; [14]
  State 3 respiration driven by succinate at 5XCmax: 0
  State 4 respiration driven by succinate at 5XCmax: 0
[6]; [11]
  State 3 respiration driven by succinate at 10XCmax: 0
  State 4 respiration driven by glutamate/malate at 10XCmax: 1.46±0.08
  State 4 respiration driven by succinate at 10XCmax: 1.23±0.11
[6]; [15]
  State 3 respiration driven by succinate at 20XCmax: 0
  State 4 respiration driven by glutamate/malate at 20XCmax: 1.30±0.15
  State 4 respiration driven by succinate at 20XCmax: 1.24±0.05
[6]; [16]
  State 3 respiration driven by succinate at 30XCmax: 0
  State 4 respiration driven by glutamate/malate at 30XCmax: 1.55±0.06
  State 4 respiration driven by succinate at 30XCmax: 1.35±0.18
[5]; [12]
  ROS measured by CM-H2DCFDA at 1XCmax: 0
[5]; [13]
  ROS measured by CM-H2DCFDA at 2.5XCmax: 0
[5]; [14]
  ROS measured by CM-H2DCFDA at 5XCmax: 0
[5]; [11]
  ROS measured by CM-H2DCFDA at 10XCmax: 0
[5]; [15]
  ROS measured by CM-H2DCFDA at 20XCmax: 0
[5]; [16]
  ROS measured by CM-H2DCFDA at 30XCmax: 0
[3]; 1 DILI positive, 0 negative according to labeling, ref product labeling
  DILI potential (based on labeling): 0
[9]; 1XCmax
  Swelling 1XCmax: 0
[9]; 2.5XCmax
  Swelling 2.5XCmax: 0
[9]; 5XCmax
  Swelling 5XCmax: 0
[9]; 10XCmax
  Swelling 10XCmax: 0
[9]; 20XCmax
  Swelling 20XCmax: 0.48±0.01
[9]; 30XCmax
  Swelling 30XCmax: 0.46±0.01
